Experimental data taken from the Deep4Chem optical property database.
Values belong to the molecule of their own block, whether it stands above or below them.

Assay: solvent given as SMILES

Compound: CN(CC(O)c1cccc(O)c1)c1ccc([N+](=O)[O-])c(C2CC(c3cccc4ccccc34)=NN2c2ccccc2)c1 (configuration not stated)
fluorescence lifetime (in C1CCCCC1): 1.14 ns | fluorescence lifetime (in C1CCOC1): 3.56 ns | fluorescence lifetime (in C1COCCO1): 3.58 ns | fluorescence lifetime (in CC#N): 3.95 ns | fluorescence lifetime (in CC(C)O): 3.42 ns | fluorescence lifetime (in CCOC(C)=O): 4.01 ns | fluorescence lifetime (in CCOCC): 2 ns | fluorescence lifetime (in CO): 3.01 ns | fluorescence lifetime (in Cc1ccccc1): 1.72 ns | fluorescence lifetime (in ClC(Cl)Cl): 2.8 ns | fluorescence lifetime (in O): 2.42 ns

fluorescence lifetime (in c1cc(-n2c3ccccc3c3ccccc32)cc(-n2c3ccccc3c3ccccc32)c1): 70 ns
Compound: N#Cc1cc(-n2c3ccccc3c3ncccc32)c(-n2c3ccccc3c3ncccc32)cc1C#N

fluorescence lifetime (in O): 2.56 ns
Compound: CCN(CC)c1ccc2c(c1)C(C)(C)C(=O)C=C2

fluorescence lifetime (in ClCCl): 0.2 ns
Compound: CC1=C(c2ccc(N(c3ccccc3)c3ccccc3)cc2)C(C)=[N+]2C1=C(c1c(-c3ccccn3)nc3ccccn13)c1c(C)cc(C)n1[B-]2(F)F

Compound: Cc1ccc2c(c1)c1cc(C)ccc1n2-c1cccc(-n2c3ccc(C)cc3c3cc(C)ccc32)c1C#N
fluorescence lifetime (in Cc1ccccc1): 5.5 ns | fluorescence lifetime (in O=P(c1ccccc1)(c1ccccc1)c1ccccc1Oc1ccccc1P(=O)(c1ccccc1)c1ccccc1): 6.6 ns

fluorescence lifetime (in C1CCCCC1): 61 ns
Compound: C[SiH](C)c1cccc2ccccc12

fluorescence lifetime (in CO): 7.8 ns | fluorescence lifetime (in ClC(Cl)Cl): 9.7 ns
Compound: CCCCCCCCCCN1C(=O)c2cc(NCCCOCCO)c3c4c(cc(NCCCOCCO)c(c24)C1=O)C(=O)N(CCCCCCCCCC)C3=O

fluorescence lifetime (in ClCCl): 2.29 ns
Compound: CCCCn1c2c(-c3ccc(N(c4ccccc4)c4ccccc4)cc3)cc(C#N)cc2c2cc(C#N)cc(-c3ccc(N(c4ccccc4)c4ccccc4)cc3)c21

fluorescence lifetime (in C1CCOC1): 2.1 ns
Compound: CC(C)(C)[Si](C)(C)C#CC1=CC2=c3cc(C#C[Si](C)(C)C(C)(C)C)c4nc(C(F)(F)C(F)(F)C(F)(F)F)nc5c(C#C[Si](C)(C)C(C)(C)C)cc(c3c54)C3=CC(C#C[Si](C)(C)C(C)(C)C)=C4N=C(C(F)(F)C(F)(F)C(F)(F)F)N=C1C4C32 (configuration not stated)

fluorescence lifetime (in ClC(Cl)Cl): 0.203 ns
Compound: CN(C)c1ccc(/C=C/c2cc[n+](CCCCCCCCCCCC[n+]3ccc(/C=C/c4ccc(N(C)C)cc4)cc3)cc2)cc1

fluorescence lifetime (in ClCCl): 3.57 ns
Compound: c1ccc(-p2c3ccccc3c3sc4ccccc4c32)cc1 (configuration not stated)

fluorescence lifetime (in ClCCl): 4.26 ns
Compound: Fc1ccc(N(c2ccc(F)cc2)c2ccc3c4cccc5c(N(c6ccc(F)cc6)c6ccc(F)cc6)ccc(c6cccc2c63)c54)cc1

Compound: Cc1cccc2c3ccccc3n(-c3ccc(-c4c(-c5ccccc5)c(C#N)c(C#N)c(-c5ccccc5)c4-c4ccc(-n5c6ccccc6c6cccc(C)c65)cc4)cc3)c12
fluorescence lifetime (in O=P(c1ccccc1)(c1ccccc1)c1ccc2oc3ccc(P(=O)(c4ccccc4)c4ccccc4)cc3c2c1): 41 ns

fluorescence lifetime (in ClCCl): 1.2 ns
Compound: c1ccc(N(c2ccccc2)c2ccc(-c3ccc4c(c3)C3(c5cc(-c6ccc(N(c7ccccc7)c7ccccc7)cc6)ccc5O4)c4ccccc4-c4ccccc43)cc2)cc1

fluorescence lifetime (in ClCCl): 4.16 ns
Compound: C(#Cc1ccc(-n2c3ccccc3c3ccccc32)cc1)c1ccc(-c2nc(-c3ccc(C#Cc4ccc(-n5c6ccccc6c6ccccc65)cc4)cc3)nc(-c3ccc(C#Cc4ccc(-n5c6ccccc6c6ccccc65)cc4)cc3)n2)cc1

fluorescence lifetime (in CC#N): 1.69 ns | fluorescence lifetime (in CCO): 2.94 ns | fluorescence lifetime (in CN(C)C=O): 2.16 ns | fluorescence lifetime (in O): 1.74 ns
Compound: CCOC(=O)c1ccccc1-c1c2ccc(=[N+](CC)CC)cc-2oc2cc(N(CC)CC)ccc12

Compound: CCN(CC)c1cccc(C=O)c1
fluorescence lifetime (in CC#N): 11.7 ns | fluorescence lifetime (in CC(C)O): 1.47 ns | fluorescence lifetime (in CCCCCC): 5.95 ns | fluorescence lifetime (in CCOC(C)=O): 14.3 ns | fluorescence lifetime (in CS(C)=O): 21.9 ns | fluorescence lifetime (in Cc1ccccc1): 16.2 ns | fluorescence lifetime (in ClCCl): 26.6 ns

fluorescence lifetime (in ClCCl): 1.03 ns
Compound: CCN(CC)c1ccc2c(-c3ccccc3C(=O)O)c3c([o+]c2c1)/C(=C/C=C/c1ccc(N(C)C)cc1)CCC3

fluorescence lifetime (in CC#N): 16.9 ns
Compound: COc1cc(/C=C/c2ccccc2)cc(OC)c1

fluorescence lifetime (in C1CCOC1): 6.8 ns | fluorescence lifetime (in CC#N): 3.5 ns | fluorescence lifetime (in CCCCCC): 16 ns
Compound: CC1=N/C(=C\c2ccc(C#N)c(N(C)C)c2)C(=O)N1C

fluorescence lifetime (in CC#N): 2.81 ns
Compound: C=CC(=O)Oc1ccc2cc(C=C)c(=O)oc2c1

Compound: CC(C)(C)c1ccc2c(c1)c1cc(C(C)(C)C)ccc1n2-c1ccc2c(c1)C(=O)c1ccc(-n3c4ccc(C(C)(C)C)cc4c4cc(C(C)(C)C)ccc43)cc1C2=O
fluorescence lifetime (in Cc1ccccc1): 7.5 ns | fluorescence lifetime (in c1ccc2c(c1)c1ccccc1n2-c1ccc(-c2ccc(-n3c4ccccc4c4ccccc43)cc2)cc1): 10.4 ns

Compound: O=C1O[B-]2(OC1=O)OC(c1ccc3ccccc3c1)=CC(c1ccc3ccccc3c1)=[O+]2
fluorescence lifetime (in CC#N): 4.6 ns | fluorescence lifetime (in ClC(Cl)(Cl)Cl): 1.8 ns

fluorescence lifetime (in C1CCOC1): 0.3 ns | fluorescence lifetime (in ClCCl): 0.3 ns
Compound: CCCCCCCc1ccc(C2=[N+]3C(=C4c5cc(OCC(CC)CC)c(-c6ccc(CCCCCCC)o6)n5[B-](F)(F)[n+]5nnn(c54)[B-]3(F)F)C=C2OCC(CC)CC)o1

fluorescence lifetime (in ClCCl): 12.9 ns
Compound: O=P1(c2ccccc2)C2=C(c3ccccc31)S(=O)(=O)c1ccccc12 (configuration not stated)

fluorescence lifetime (in C1CCOC1): 4.6 ns
Compound: Cc1ccc(-c2cnc3nn4ccccc4c3c2)cc1

fluorescence lifetime (in C1CCCCC1): 8.64 ns
Compound: c1cc2c3c(c1)OCCCCCCOc1cccc(c1-c1c4ccccc4c-3c3ccccc13)OCCCCCCO2

Compound: c1csc(-c2ccc(-c3cccs3)s2)c1
fluorescence lifetime (in CC#N): 0.2 ns | fluorescence lifetime (in ClCCl): 0.17 ns

fluorescence lifetime (in C1CCOC1): 13.2 ns | fluorescence lifetime (in CC#N): 5.2 ns | fluorescence lifetime (in CCCCCC): 18.9 ns
Compound: CC(O)CC1=N/C(=C\c2cccc(N(C)C)c2)C(=O)N1C (configuration not stated)

fluorescence lifetime (in C1CCCCC1): 5.3 ns | fluorescence lifetime (in CC#N): 14 ns | fluorescence lifetime (in CCO): 1.1 ns
Compound: COc1ccc2c(c1)-c1ccccc1C2=O

fluorescence lifetime (in ClCCl): 1.04 ns
Compound: CCCc1c(C(=O)c2ccc3c4c(cccc24)-c2cccc4c2C3CC=C4)c2ccc3cccc4c5cccc6ccc1c(c65)c2c34 (configuration not stated)

fluorescence lifetime (in ClC(Cl)Cl): 2.72 ns
Compound: F[B-]1(F)OC(c2ccc(N3CCCC3)cc2)=Cc2cccc[n+]21

fluorescence lifetime (in CS(C)=O): 1.36 ns
Compound: c1cnc2c(c1)c1nc(-c3ccc(-c4nc5c6cccnc6c6ncccc6c5[nH]4)cc3)[nH]c1c1cccnc12

fluorescence lifetime (in C1CCOC1): 1 ns
Compound: N#C/C(=C\c1ccc(C=C(c2ccccc2)c2ccccc2)cc1)c1ccccc1

fluorescence lifetime (in C1COCCO1): 12.2 ns | fluorescence lifetime (in CCOC(C)=O): 8.2 ns
Compound: COc1nc(Nc2ccc3cc4ccccc4cc3c2)nc(OC)n1
